Values of other authors, collected in Sander's compilation of Henry's law constants.

Assay: Henry solubility constant Hcp at 298.15 K (mol/(m3 Pa))
Details: cited value
[1] = reference: Burkholder et al. (2015)
[2] = reference: Burkholder et al. (2019)
[3] = reference: Fogg and Sangster (2003)
[4] = reference: Sander et al. (2006)
[5] = reference: Sander et al. (2011)
[6] = reference: Mackay et al. (1992b)
[7] = reference: Mackay et al. (1995)

| Structure (SMILES) | Henry solubility constant Hcp (reference: Brockbank (2013)) | other results |
| --- | --- | --- |
| CC(C)CCC(C)C [2,5-dimethylhexane] | 3.1e-06 | – |
| N#Cc1c(Cl)cccc1Cl [2,6-dichlorobenzenenitrile] | – | Henry solubility constant Hcp (reference: Barcelo and Hennion (1997)): 0.015 |
| CC(C)CC(=O)CC(C)C [2,6-dimethyl-4-heptanone] | 0.013 | – |
| Cc1cccc(C)n1 [2,6-dimethylpyridine] | 0.92 | – |
| CCC(C)Br (configuration not stated) [2-bromobutane] | 0.00088 | – |
| CC(C)Br [2-bromopropane] | 0.0009 | – |
| CCC(C)O (configuration not stated) [2-butanol] | 0.95 | Henry solubility constant Hcp [1]: 1.1; Henry solubility constant Hcp [2]: 1.1; Henry solubility constant Hcp [3]: 1; Henry solubility constant Hcp [4]: 1.1; Henry solubility constant Hcp [5]: 1.1 |
| CCCCOCCOC(C)=O [2-butoxyethyl ethanoate] | 1.8 | – |
| CCC(C)OC(C)=O (configuration not stated) [2-butyl ethanoate] | 0.023 | – |
| FC(F)OC(F)(F)C(F)Cl (configuration not stated) [2-chloro-1,1,2-trifluoroethyl difluoromethyl ether] | – | Henry solubility constant Hcp [3]: 0.0003 |
| CCC(C)Cl (configuration not stated) [2-chlorobutane] | 0.00041 | – |
| Clc1ccc2ccccc2c1 [2-chloronaphthalene] | – | Henry solubility constant Hcp (reference: Goldstein (1982)): 0.016 |
| CC(C)Cl [2-chloropropane] | 0.00057 | – |
| CCOC(C)(C)CC [2-ethoxy-2-methylbutane] | 0.005 | – |
| CCOCCOC(C)=O [2-ethoxyethyl ethanoate] | 3 | – |
| CCC/C=C(/C=O)CC [2-ethyl-2-hexenal] | 0.052 | – |
| CCc1ccccc1N [2-ethylaniline] | 2.6 | – |
| CCCCC(C=O)CC (configuration not stated) [2-ethylhexanal] | 0.012 | – |
| CCc1ccc2ccccc2c1 [2-ethylnaphthalene] | – | Henry solubility constant Hcp [6]: 0.013 |
| CCCCCC(C)O (configuration not stated) [2-heptanol] | 0.33 | – |
| CCCCCC(C)=O [2-heptanone] | 0.068 | – |

| Structure (SMILES) | Henry solubility constant Hcp (reference: Brockbank (2013)) | other results |
| --- | --- | --- |
| CCCCC(C)O (configuration not stated) [2-hexanol] | 0.39 | – |
| CCCCC(C)=O [2-hexanone] | 0.11 | Henry solubility constant Hcp (reference: Howard (1993)): 0.1 |
| COC(=O)c1ccccc1O [2-hydroxybenzoic acid methyl ester] | 1.6 | – |
| Oc1ccccc1Cl [2-hydroxychlorobenzene] | – | Henry solubility constant Hcp (reference: Goldstein (1982)): 1.2; Henry solubility constant Hcp (reference: Howard (1989)): 18 |
| CC(C)I [2-iodopropane] | 0.00085 | – |
| CCC(C)(C)OC [2-methoxy-2-methylbutane] | 0.0097 | – |
| CCC(C)CO (configuration not stated) [2-methyl-1-butanol] | 0.76 | – |
| CC(C)CO [2-methyl-1-propanol] | 0.8 | Henry solubility constant Hcp [1]: 0.83; Henry solubility constant Hcp [2]: 0.83; Henry solubility constant Hcp [4]: 1; Henry solubility constant Hcp [5]: 1 |
| CCC(C)(C)O [2-methyl-2-butanol] | 0.65 | – |
| CC=C(C)C [2-methyl-2-butene] | 5.7e-05 | – |
| Cc1ccccc1N [2-methylbenzenamine] | 4.8 | – |
| CCC(C)C=O (configuration not stated) [2-methylbutanal] | 0.025 | – |
| CCCCC(C)C [2-methylhexane] | 2.9e-06 | – |
| Cc1ccc2ccccc2c1 [2-methylnaphthalene] | 0.02 | Henry solubility constant Hcp [3]: 0.018; Henry solubility constant Hcp [6]: 0.02 |
| CCCC(C)C [2-methylpentane] | 6.4e-06 | – |
| CC(C)C [2-methylpropane] | – | Henry solubility constant Hcp [1]: 9.1e-06; Henry solubility constant Hcp [2]: 9.1e-06; Henry solubility constant Hcp (reference: Hayduk (1986)): 9.1e-06; Henry solubility constant Hcp [4]: 9.1e-06; Henry solubility constant Hcp [5]: 9.1e-06 |
| CC(C)C#N [2-methylpropanenitrile] | 0.11 | Henry solubility constant Hcp (reference: Plyasunov et al. (2006)): 0.1 |
| CC(C)COC(=O)C(C)C [2-methylpropyl 2-methylpropanoate] | 0.0074 | – |
| CC(=O)OCC(C)C [2-methylpropyl ethanoate] | 0.026 | – |
| Cc1ccccn1 [2-methylpyridine] | 0.98 | – |
| Cc1cccs1 [2-methylthiophene] | 0.0041 | – |

| Structure (SMILES) | Henry solubility constant Hcp (reference: Brockbank (2013)) | other results |
| --- | --- | --- |
| Nc1ccccc1[N+](=O)[O-] [2-nitrobenzenamine] | 71 | – |
| O=[N+]([O-])c1ccccc1O [2-nitrophenol] | – | Henry solubility constant Hcp (reference: Goldstein (1982)): 0.69 |
| CCCCCCCC(C)O (configuration not stated) [2-nonanol] | 0.21 | – |
| CCCCCCCC(C)=O [2-nonanone] | 0.032 | – |
| CCCCCCC(C)O (configuration not stated) [2-octanol] | 0.27 | – |
| CCCCCCC(C)=O [2-octanone] | 0.05 | – |
| CC(=O)C(=O)O [2-oxopropanoic acid] | – | Henry solubility constant Hcp [1]: 3100; Henry solubility constant Hcp [2]: 3100; Henry solubility constant Hcp [4]: 3100; Henry solubility constant Hcp [5]: 3100 |
| CCCC(C)O (configuration not stated) [2-pentanol] | 0.67 | – |
| CCCC(C)=O [2-pentanone] | 0.13 | Henry solubility constant Hcp [7]: 0.17 |
| OCCc1ccccc1 [2-phenylethanol] | 17 | – |
| CC(C)S [2-propanethiol] | 0.0013 | – |
| CC(C)O [2-propanol] | 1.2 | Henry solubility constant Hcp [1]: 1.2; Henry solubility constant Hcp [2]: 1.2; Henry solubility constant Hcp [3]: 1.2; Henry solubility constant Hcp (reference: Hine and Weimar (1965)): 1.7; Henry solubility constant Hcp [4]: 1.3; Henry solubility constant Hcp [5]: 1.3 |
| C=CCO [2-propen-1-ol] | – | Henry solubility constant Hcp (reference: Goldstein (1982)): 4.3; Henry solubility constant Hcp (reference: Pierotti et al. (1959)): 2 |
| C=CC#N [2-propenenitrile] | 0.1 | Henry solubility constant Hcp (reference: Goldstein (1982)): 0.11; Henry solubility constant Hcp [7]: 0.11 |
| CC(=O)OC(C)C [2-propyl ethanoate] | 0.033 | – |
| Nc1ccc(-c2ccc(N)c(Cl)c2)cc1Cl [3,3'-dichloro-(1,1'-biphenyl)-4,4'-diamine] | – | Henry solubility constant Hcp [7]: 12 |
| CC(=O)C(C)(C)C [3,3-dimethyl-2-butanone] | 0.043 | – |
| CCC(C)(C)CC [3,3-dimethylpentane] | 5.6e-06 | – |
| CC1=CC(=O)CC(C)(C)C1 [3,5,5-trimethyl-2-cyclohexen-1-one] | – | Henry solubility constant Hcp (reference: Goldstein (1982)): 1.7 |
| C=CC(C)=O [3-buten-2-one] | – | Henry solubility constant Hcp [1]: 0.4; Henry solubility constant Hcp [2]: 0.4 |
| C=CCC#N [3-butenenitrile] | 0.2 | – |

| Structure (SMILES) | Henry solubility constant Hcp (reference: Brockbank (2013)) | other results |
| --- | --- | --- |
| CCCCC(O)CC (configuration not stated) [3-heptanol] | 0.32 | – |
| CCCCC(=O)CC [3-heptanone] | 0.072 | – |
| CCCC(O)CC (configuration not stated) [3-hexanol] | 0.37 | – |
| CCCC(=O)CC [3-hexanone] | 0.079 | – |
| CC(C)CCO [3-methyl-1-butanol] | 0.82 | – |
| CC(C)C(C)O (configuration not stated) [3-methyl-2-butanol] | 0.51 | – |
| CC(=O)C(C)C [3-methyl-2-butanone] | 0.11 | – |
| Cc1cccc(C=O)c1 [3-methylbenzaldehyde] | 0.35 | – |
| Cc1cccc(N)c1 [3-methylbenzenamine] | 5.6 | – |
| CCCC(=O)OCCC(C)C [3-methylbutyl butanoate] | 0.011 | – |
| CC(=O)OCCC(C)C [3-methylbutyl ethanoate] | 0.021 | Henry solubility constant Hcp (reference: Goldstein (1982)): 0.024; Henry solubility constant Hcp (reference: Meynier et al. (2003)): 0.017 |
| CCCCC(C)CC (configuration not stated) [3-methylheptane] | 2.6e-06 | – |
| CCCC(C)CC (configuration not stated) [3-methylhexane] | 3.2e-06 | – |
| CCC(C)CC [3-methylpentane] | 5.9e-06 | – |
| Cc1cccnc1 [3-methylpyridine] | 1.2 | – |
| O=[N+]([O-])c1cccc(O)c1 [3-nitrophenol] | – | Henry solubility constant Hcp (reference: Gaffney and Senum (1984)): 4900 |
| Cc1cccc([N+](=O)[O-])c1 [3-nitrotoluene] | 0.27 | Henry solubility constant Hcp (reference: Goldstein (1982)): 0.14 |
| CCCCCCC(=O)CC [3-nonanone] | 0.051 | – |
| CCC(O)CC [3-pentanol] | 0.6 | – |
